In article PMC10901819, “Structure-function analysis of the cyclic β-1,2-glucan synthase from Agrobacterium tumefaciens” (Nature Communications, 2024):

Target: T1, Cgs (CgsWT) (Agrobacterium fabrum, UniProt Q7CWD9)
T1 construct: gene chvB; full length, C-terminal 3xFlag from chromosomal insertion; purified from native A. tumefaciens C58 membranes in DDM; nanodiscs (cryo-EM) or proteoliposomes (activity); subpopulation of dimers
Assay: cryo-EM structure
Assay type: binding
Settings: GT active site; sample incubated with 5 mM UDP-Glc, 1.5 mM MgCl2, pH 7.5, 22 °C; putative UDP density

In the case of `O=c1ccn([C@@H]2O[C@H](COP(=O)(O)OP(=O)(O)O)[C@@H](O)[C@H]2O)c(=O)[nH]1` [UDP], the cryo-EM structure is reported as “The CgsWT model contains an additional density docked at the active site”.
